Values quoted from earlier work, collected in patent US20240041838A1, “METHODS AND COMPOSITIONS FOR INHIBITION OF NEUTROPHIL RECRUITMENT IN MYCOCARDIAL ISCHEMIA-REPERFUSION INJURY” (University of Connecticut, priority 2022, published 2024).

System: I/R-induced ventricular arrhythmia
Conditions: reported; cited from earlier work

Q: For `CCN(CC)CCCC(C)Nc1nc(C)cc(Nc2ccc3nc(C)cc(N)c3c2)n1` (stereo not shown) [NSC23766], which I/R-induced ventricular arrhythmia is on record?
A: The I/R-induced ventricular arrhythmia was “decreased”.
